The values that follow come from patent US20060106102A1, “Napththalene derivatives which inhibit the cytokine or biological activity of microphage migration inhibitory factor (mif)” (priority 2002, published 2006).

pEC50: −log10 of the molar value. Structures can show the parent of a compound that is named as a salt. Where two headings read alike, the source gives them in different places.

Experiment [1] has as its system antigen-specific T cell activation (splenic T lymphocytes from mBSA-immunised mice). Put plainly: antigen-specific (mBSA) activation of splenic T lymphocytes in vitro, 3H-thymidine incorporation. The format is cell-based, C57BL6/J mice. On the procedure:
After a further seven (7) days mice were killed and spleens collected aseptically into Hanks buffered saline solution (HBSS). A single cell suspension was prepared in Petri dishes by flushing DMEM through the organ using a 26G needle and 2 mL syringe. The resulting cell suspension was centrifuged for 5-7 minutes and supernatant discarded. Erythrocytes were lysed using a solution containing 0.579% NH4Cl, 0.000037% EDTA, and 0.1% NaHCO3 in a 37° C. water bath. Tubes were then filled with DMEM and centrifuged for 5-7 minutes. […] The specific stimulating antigen, mBSA, was then added at 10-50 μg/mL and plates incubated for 30 hours in a 37° C., 5% CO2 incubator. Tritiated^3H-thymidine was then added at a concentration of 0.5 μCi/well for a further 18 hours. Cells were harvested on a Packard cell harvester, and the harvested material added to 750 μL/tube scintillation fluid. Scintillation counts were read on a Wallac beta-emnission counter. […] Further compounds were also tested for their ability to inhibit antigen-specific T cell activation as a marker of the inhibition of the cytokine or biological activity of MIF using this assay.

For experiment [2], the system named is IL-1-induced COX-2 expression. The experiment is described as follows: IL-1-induced COX-2 expression in S112 human dermal fibroblasts (MIF-dependent event), flow cytometry. The format is cell-based. As to the method:
The activity of each compound was studied in a bioassay utilising MIF-dependent activation of human dermal fibroblasts. […] IL-1-induced COX-2 expression is therefore a MIF-dependent event. […] Prior to experimentation, cells were seeded at 10^5 cells/ml in RPMI/0.1% BSA for 18 hours. […] Cells permeabilised with 0.1% saponin were sequentially labelled with a mouse anti-human COX-2 monoclonal antibody and with sheep-anti-mouse F(ab)2 fragment labelled with fluoroscein isothiocyanate. Cellular fluorescence was determined using a flow cytometer. At least 5000 events were counted for each reading, each of which was performed in duplicate, and the results expressed in mean fluorescence intensity (MFI) after subtraction of negative control-labelled cell fluorescence. The effect of each compound was determined by subtracting the IL-1+compound-treated cell MFI from the IL-1-treated cell MFI and expressed as % inhibition. In each case the % inhibition of IL-1-induced COX2 expression is shown as the mean, or mean±SEM where results are available from multiple experiments.
(In general: A flow cytometer gives signals particle by particle.)

Setting [3] is: Mus musculus, T-cell, mBSA 10 μg/ml, read-out: EC50 (T cell activation suppressed by 50% compared to vehicle-only-treated cells).
Setting [4] is: Mus musculus, T-cell, mBSA 50 μg/ml, read-out: EC50 (T cell activation suppressed by 50% compared to vehicle-only-treated cells).
[5] abbreviates: Homo sapiens, Fibroblast, compound 50 uM, IL-1 0.1 ng/ml, 6 hours, S112 cells, read-out: % inhibition of IL-1-induced COX2 expression (Effect).

Usually inhibition stands for the percentage by which the read-out fell short of the control. With `COc1ccc2cc(C)c(C(=O)O)cc2c1Br` [Compound 40, 5-bromo-6-methoxy-2-methyl-3-naphthaoic acid], the pEC50 was 5.59 in experiment [1] (setting [3]) and 5.05 in experiment [1] (setting [4]). Further, the inhibition at 50 µM in experiment [2] (setting [5]) came to 8.5%.

As to `CCCCCOS(=O)(=O)c1ccc2cc(O)c(O)cc2c1` [Compound 10, Pentyl 6,7-dihydroxy-2-naphthalenesulfonate], the pEC50 was 5.00 in experiment [1] (setting [3]) and 4.78 in experiment [1] (setting [4]). Further, the inhibition at 50 µM in experiment [2] (setting [5]) amounted to 27.7%.

Consider `CCOC(=O)c1ccc2cc(SC(=O)N(C)C)ccc2c1OC` [Compound 33, Ethyl-6-[(dimethylamino)carbonyl]sulfanyl-1-methoxy-2-naphthoate], for which the pEC50 in experiment [1] (setting [3]) is 4.90; in experiment [1] (setting [4]), 6.27. Further, in experiment [2] (setting [5]), the inhibition at 50 µM came out at 5.3%.

Take `CCOC(=O)c1ccc2cc(O)ccc2c1O` [Compound 28, Ethyl 1,6-dihydroxy-2-naphthaote]: the pEC50 in experiment [1] (setting [3]) is 5.19; in experiment [1] (setting [4]), 5.93. Also, the inhibition at 25 µM in experiment [2] (Homo sapiens, Fibroblast, compound 25 uM, IL-1 0.1 ng/ml, 6 hours, S112 cells, read-out: % inhibition of IL-1-induced COX2 expression (Effect)) came to 7.8%.

As to `COC(=O)c1ccc2c([N+](=O)[O-])c(O)ccc2c1` [Compound 47, Methyl 6-hydroxy-5-nitro-2-naphthoate ester], the figures for the pEC50 in experiment [1] (setting [3]) and in experiment [1] (setting [4]) were 4.88 and less than 4.00, respectively.

Consider `COc1ccc2cc(C)c(C(=O)O)cc2c1` [Compound 39, 7-methoxy-3-methyl-2-naphthoic acid: 2-amino-2-methylpropan-1-ol salt], for which the pEC50 was 4.31 in experiment [1] (setting [3]) and 4.05 in experiment [1] (setting [4]). In experiment [2] (setting [5]), the inhibition at 50 µM was found to be 13.3%.

For the compound `COC(=O)c1ccc2ccc(O)cc2c1` [Compound 45, Methyl 7-hydroxy-2-naphanoate ester], the pEC50 was 4.83 in experiment [1] (setting [3]) and 4.49 in experiment [1] (setting [4]).

As for `CCCCCCCCCCCCCCCCCCCCOC(=O)c1ccc2cc(O)ccc2c1` [Compound 19], the pEC50 in experiment [1] (setting [3]) is 4.96; in experiment [1] (setting [4]), 6.02. The inhibition at 10 µM in experiment [2] (Homo sapiens, Fibroblast, compound 10 uM, IL-1 0.1 ng/ml, 6 hours, S112 cells, read-out: % inhibition of IL-1-induced COX2 expression (Effect)) stood at 7.7%.

With `CNc1ccc2cc(S(=O)(=O)O)ccc2c1` [Compound 11, 6-methylamino-2-naphthalene sulphonic acid, sodium salt], the pEC50 was 7.70 in experiment [1] (Mus musculus, T-cell, read-out: EC50 (T cell activation suppressed by 50% compared to vehicle-only-treated cells), mBSA 10 μg/ml) and 5.48 in experiment [1] (Mus musculus, T-cell, read-out: EC50 (T cell activation suppressed by 50% compared to vehicle-only-treated cells), mBSA 50 μg/ml). Further, in experiment [2] (Homo sapiens, Fibroblast, 6 h, read-out: % inhibition of IL-1-induced COX2 expression (Effect)), the inhibition at 25 µM is 13.6%.

With `COC(=O)c1ccc2ccc(O)c([N+](=O)[O-])c2c1` [Compound 46, Methyl 7-hydroxy-8-nitro-2-naphthoate ester], in experiment [1] (setting [4]), the pEC50 is 4.55. Moreover, in experiment [2] (setting [5]), the inhibition at 50 µM was found to be 9.3%.

Turning to `CCCCCNCc1cc2ccc(O)cc2cc1C(=O)O` [Compound 43, 6-hydroxy-[2-(1-pentylamino)methyl]-3-naphthoic acid], the pEC50 in experiment [1] (mBSA 10 μg/ml, read-out: EC50 (T cell activation suppressed by 50% compared to vehicle-only-treated cells)) is 5.73; in experiment [1] (mBSA 50 μg/ml, read-out: EC50 (T cell activation suppressed by 50% compared to vehicle-only-treated cells)), 4.38. Also, the “% inhibition of IL-1-induced COX2 expression (Effect)” value in experiment [2] (compound 50 uM, IL-1 0.1 ng/ml, 6 hours, S112 cells) stood at 24.10%.

As for `COC(=O)c1ccc2ccc(OC)cc2c1` [Compound 44, Methyl 7-methoxy-2-naphthoate ester], the pEC50 is 4.90 in experiment [1] (setting [3]) and less than 4.00 in experiment [1] (setting [4]). In addition, in experiment [2] (setting [5]), the inhibition at 50 µM was 9.8%.

Consider `C[C@@H]1C[C@H]2[C@@H]3CCC4=CC(=O)C=C[C@]4(C)[C@@]3(F)[C@@H](O)C[C@]2(C)[C@@]1(O)C(=O)CO` [dexamethasone, reference compound], for which the “% inhibition (IL-1 induced COX-2 expression)” value in experiment [2] (Table 2 experiment 2: dexamethasone alone, 10^−9 M) was 63.8%.

Turning to `COC(=O)c1ccc2cc(OC)cc(C)c2c1` [Compound 65, Methyl 6-methoxy-8-methyl-2-napthoate ester], the pEC50 in experiment [1] (setting [4]) is 4.75. Moreover, the inhibition at 50 µM in experiment [2] (setting [5]) turned out to be 50.4%.

On to `COC(=O)c1cc2cc(OC)ccc2cc1O` [Compound 35, methyl 2-hydroxy-6-methoxy-3-naphthoate], for which the figures for the pEC50 in experiment [1] (setting [3]) and in experiment [1] (setting [4]) were 5.05 and 6.66, respectively.

On to `COC(=O)c1ccc2c(N)c(OC)ccc2c1` [Compound 49, Methyl 5-amino-6-methoxy-2-naphthoate ester], for which the pEC50 is 6.00 in experiment [1] (setting [3]) and 4.92 in experiment [1] (setting [4]).

In the case of `COc1ccc2cc(C(CCCCCO)C(=O)O)ccc2c1` (centres unmarked) [Compound 58, 7-hydroxy-2-(6-methoxy-2-naphthyl)heptanoic acid], the pEC50 in experiment [1] (setting [4]) is 4.65.
